Laboratory results published in US7728036B2, “Methods for delivery of catecholic butanes for treatment of tumors” (priority 2003, dated 2010).

Assays:
[1] = system: human mammary carcinoma MX-1 xenograft; conditions: intratumor injection or topical application of NDGA; cited from earlier work
[2] = system: HPV-16 transformed immortal mouse epithelial cells (C3); conditions: intratumor injection; cited from earlier work
[3] = Solubility character; assay type: physicochemical

Row | Structure (SMILES) | Inhibition of tumor growth [1] | Suppression of tumor growth / tumoricidal activity [2] | Water solubility / hydrophilic or lipophilic character [3]
1 | CC(Cc1ccc(O)c(O)c1)C(C)Cc1ccc(O)c(O)c1 (stereo not drawn) [NDGA, nordihydroguaiaretic acid] | Some evidence of inhibition of tumor growth | – | –
2 | C[C@H](Cc1ccc(OC(=O)CN(C)C)c(OC(=O)CN(C)C)c1)[C@@H](C)Cc1ccc(OC(=O)CN(C)C)c(OC(=O)CN(C)C)c1 [G4N, meso-1,4-bis[3,4-(dimethylaminoacetoxy)phenyl]-(2R,3S)-dimethylbutane] | – | some evidence of suppression of tumor growth | water-soluble, hydrophilic
